≈ marks a conversion by molar mass, not a printed value. Where two headings read alike, the source gives them in different places.

In data set [1] the test system is lipoprotein lipase (LPL) gene. Put plainly: LPL mRNA elevating action (RT-PCR quantification of LPL mRNA in C2Cl2 cells). The class given is cell-based, mouse. To be noted: Mus musculus, 24 h, compound 10 μM, ratio relative to the amount of LPL mRNA in cells with DMSO only, read-out: Rate of increase in LPL mRNA. The protocol:
LPL mRNA Elevating Action
C2Cl2 cells (cell strain derived from striated muscle of mouse) were seeded in 96-well plates using a DMEM medium (Gibco) (containing 2 mM L-glutamine and 10% fetal bovine serum). After the cells were grown, the medium was removed. Subsequently, media obtained by adding dimethyl sulfoxide (DMSO) solutions of the compounds to the same medium as described above to a concentration of 10 μM were individually added to the cells and allowed to stand for 24 hours. The compound-containing media were removed, and the plates were washed with phosphate buffered saline. Thereafter, the remaining cells were lysed and subjected to a reverse transcription polymerase chain reaction (RT-PCR reaction) to obtain cDNA. Primers specific to lipoprotein lipase (LPL) gene, a necessary enzyme, etc., were added to the obtained cDNA. The mixture was set in 7500 Fast Real Time PCR System produced by Applied Biosystem to perform a PCR reaction (20 cycles) and the amount of LPL mRNA amplified was quantified. The LPL mRNA elevating action of each compound in the test cells was indicated as the ratio relative to the amount of LPL mRNA in cells allowed to stand in a medium to which only DMSO was added, with the amount being defined as 1.
As Comparative Example 1, a test was performed in the same manner as above, using a compound disclosed as the compound of Example 57 in WO2010/090200.

Data set [2] in a line: Solubility in gastric juice or intestinal juice model fluid (precipitation method using DMSO). To be noted: room temperature. The class given is physicochemical. The gist of the method: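 Dissolved amount (μg/mL) quantified by UV of filtrate versus pre-made calibration curves. Precipitation approach: DMSO solutions spiked into pH 1.2 (JP 1st fluid) or pH 6.8 (JP 2nd fluid) medium, shaken at room temperature for 24 h before insolubles were filtered off.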

Where [3] appears, read: pH 1.2, simulated gastric fluid, kinetic from dmso stock, 1st fluid for Disintegration Test of Japanese Pharmacopoeia (pH: 1.2), read-out: Solubility (μg/mL) 1st fluid.
[4] abbreviates: pH 6.8, kinetic from dmso stock, 2nd fluid for Disintegration Test of Japanese Pharmacopoeia (pH: 6.8), read-out: Solubility (μg/mL) 2nd fluid.

`COc1cc(OCc2cnc(Cl)cn2)ccc1-c1c[nH]c(-c2ccc(Cl)nc2)n1` [Example 20] showed a melting point of 219 to 221 °C. Further, the fold induction at 10 µM in data set [1] turned out to be 2.78.

Turning to `COc1cc(OCc2ccc(C(F)(F)F)nc2)ccc1-c1c[nH]c(-c2ccc(Cl)cn2)n1` [Example 32], the melting point is 186 to 189 °C. The fold induction at 10 µM in data set [1] came to 2.58.

In turn, `COc1cc(OCc2ncccc2C#N)ccc1-c1c[nH]c(-c2ccc(Cl)nc2)n1` [Example 33] came in with a melting point of 193 to 195 °C. Further, the fold induction at 10 µM in data set [1] is 2.92.

`COc1cc(OCc2cccc(C(F)(F)F)n2)ccc1-c1c[nH]c(-c2ccc(Cl)nc2)n1` [Example 36]: the melting point is 222 to 224 °C. Also, the fold induction at 10 µM in data set [1] worked out at 2.4.

As to `COc1cc(-c2c[nH]c(-c3ccc(Cl)nc3)n2)cc(OC)c1OCc1ccc(C(F)(F)F)cn1` [Example 71], the melting point was 171 to 173 °C (dec.). The fold induction at 10 µM in data set [1] stood at 2.37.

`COc1cc(OCc2cnc(Cl)cn2)ccc1-c1c[nH]c(-c2ccc(F)nc2)n1` [Example 123] registered a melting point of 197 to 199 °C. In data set [1], the fold induction at 10 µM was found to be 3.22.

Regarding `COc1cc(OCc2ncc(Cl)cc2Br)ccc1-c1cnc(-c2ccc(F)nc2)[nH]1` [Example 134], the melting point was 176 to 180 °C. Moreover, in data set [1], the fold induction at 10 µM is 2.85.

Compound `COc1cc(OCc2ccc(F)cc2F)ccc1-c1cnc(-c2ccc(F)nc2)[nH]1` [Example 142] registered a melting point of 168 to 173 °C. Besides, the fold induction at 10 µM in data set [1] is 2.27.

In the case of `COc1cc(OCc2cccc(C(F)(F)F)n2)ccc1-c1[nH]c(-c2ccc(F)nc2)nc1Cl` [Example 172], the melting point lay in the range of 189 to 191 °C. Moreover, the fold induction at 10 µM in data set [1] was 3.12.

Turning to `COc1cc(OCc2ccc(C(F)(F)F)cc2)ccc1-c1[nH]c(-c2ccc(F)nc2)nc1Cl` [Example 176], the melting point lay in the range of 163 to 166 °C. Moreover, the fold induction at 10 µM in data set [1] is 2.83.

As to `COc1cc(OCc2ccc(C(F)(F)F)nc2)ccc1-c1nc(-c2ccc(Cl)nc2)[nH]c1Br` [Example 222], the melting point is 222 to 223 °C (dec.). Also, the fold induction at 10 µM in data set [1] was determined as 2.89.

Consider `COc1cc(OCc2ccc(C(F)(F)F)nc2)ccc1-c1nc(-c2ccc(F)nc2)[nH]c1Br` [Example 224, 5-[(4-(4-bromo-2-(6-fluoropyridin-3-yl)-1H-imidazol-5-yl)-3-methoxyphenoxy)methyl]-2-(trifluoromethyl)pyridine], for which the melting point was 195 to 197 °C (dec.). For the same compound, in data set [1], the fold induction at 10 µM is 2.29.

`COc1cc(OCc2ccc(C(F)(F)F)nc2)ccc1-c1nc(-c2ccc(F)nc2)[nH]c1Cl` [Example 227] gave a melting point of 176 to 177 °C. Besides, the fold induction at 10 µM in data set [1] is 5.08.

The compound `COc1cc(OCc2ccc(C(F)(F)F)nc2)ccc1-c1nc(-c2ccc(Cl)nc2)[nH]c1Cl` [Example 229] yielded a melting point of 205 to 208 °C. Further, the fold induction at 10 µM in data set [1] came to 2.62.

On to `COc1cc(OCc2ccc(C(F)(F)F)cn2)ccc1-c1nc(-c2ccc(Cl)nc2)[nH]c1Cl` [Example 235], for which the melting point was in the range of 180 to 182 °C. In addition, the fold induction at 10 µM in data set [1] was determined as 2.78.

In turn, `COc1cc(OCc2cncc(C(F)(F)F)c2)ccc1-c1[nH]c(-c2ccc(Cl)nc2)nc1Cl` [Example 241] returned a melting point of 198 to 201 °C. For the same compound, the fold induction at 10 µM in data set [1] was 2.45.

Compound `COc1cc(OCc2ccnc(C(F)(F)F)c2)ccc1-c1[nH]c(-c2ccc(Cl)nc2)nc1Cl` [Example 242] yielded a melting point of 236 to 239 °C. For the same compound, the fold induction at 10 µM in data set [1] is 2.38.

`COc1cc(OCc2ncc(Cl)cc2F)ccc1-c1[nH]c(-c2ccc(Cl)nc2)nc1Br` [Example 248] registered a melting point of 172 to 176 °C. In data set [1], the fold induction at 10 µM was 2.36.

Compound `COc1cc(OCc2ncc(Cl)cc2F)ccc1-c1[nH]c(-c2ccc(Cl)nc2)nc1Cl` [Example 249] gave a melting point of 174 to 181 °C. Further, the fold induction at 10 µM in data set [1] turned out to be 2.5.

With `COc1cc(OCc2cncc(C(F)(F)F)c2)ccc1-c1[nH]c(-c2ccc(Cl)nc2)nc1Br` [Example 252], the melting point is 186 to 199 °C. Besides, in data set [1], the fold induction at 10 µM was 2.58.

Turning to `COc1cc(OCc2ncc(C(F)(F)F)cc2Br)ccc1-c1[nH]c(-c2ccc(F)nc2)nc1Br` [Example 254], the melting point was in the range of 148 to 170 °C. Further, the fold induction at 10 µM in data set [1] turned out to be 2.71.

In turn, `COc1cc(OCc2ccc(F)cc2F)ccc1-c1[nH]c(-c2ccc(F)nc2)nc1Br` [Example 258] returned a melting point of 164 to 166 °C. Further, the fold induction at 10 µM in data set [1] turned out to be 2.91.

As for `COc1cc(OCc2ccc(Cl)cc2F)ccc1-c1[nH]c(-c2ccc(F)nc2)nc1Br` [Example 259], the melting point was 165 to 167 °C. In addition, in data set [1], the fold induction at 10 µM was 2.93.

As for `COc1cc(OCc2ccc(Br)cc2F)ccc1-c1[nH]c(-c2ccc(F)nc2)nc1Br` [Example 260], the melting point fell in the range of 158 to 161 °C. Moreover, the fold induction at 10 µM in data set [1] is 2.95.

In turn, `COc1cc(OCc2ncc(C(F)(F)F)cc2Cl)ccc1-c1[nH]c(-c2ccc(F)nc2)nc1Br` [Example 261] registered a melting point of 179 to 180 °C. In data set [1], the fold induction at 10 µM came to 4.08.

`COc1cc(OCc2ncc(C(F)(F)F)cc2Cl)ccc1-c1[nH]c(-c2ccc(F)nc2)nc1Cl` [Example 262] returned a melting point of 160 to 162 °C. Moreover, the fold induction at 10 µM in data set [1] was 3.61.

In the case of `COc1cc(OCc2ncc(C(F)(F)F)cc2Br)ccc1-c1[nH]c(-c2ccc(F)nc2)nc1Cl` [Example 263], the melting point is 166 to 170 °C. Besides, in data set [1], the fold induction at 10 µM is 3.18.

`COc1cc(OCc2ncc(Cl)cc2Br)ccc1-c1[nH]c(-c2ccc(F)nc2)nc1Br` [Example 264] gave a melting point of 196 to 203 °C. Besides, the fold induction at 10 µM in data set [1] was 2.99.

For the compound `COc1cc(OCc2ccnc(C(F)(F)F)c2)ccc1-c1[nH]c(-c2ccc(F)nc2)nc1Br` [Example 271], the melting point is 223 to 225 °C (dec.). The fold induction at 10 µM in data set [1] stood at 3.39.

Regarding `COc1cc(OCc2cccc(C(F)(F)F)n2)ccc1-c1[nH]c(-c2ccc(F)nc2)nc1Br` [Example 273], the melting point is 200 to 202 °C (dec.). The fold induction at 10 µM in data set [1] is 2.5.

The compound `COc1cc(OCc2ccncc2C(F)(F)F)ccc1-c1[nH]c(-c2ccc(F)nc2)nc1Cl` [Example 277] registered a melting point of 203 to 208 °C. The fold induction at 10 µM in data set [1] was found to be 2.66.

Take `Fc1ccc(-c2ncc(-c3ccc(OCc4ncc(C(F)(F)F)cc4F)cc3OCc3ccccc3)[nH]2)cn1` [Example 398, 2-[(3-(benzyloxy)-4-(2-(6-fluoropyridin-3-yl)-1H-imidazol-5-yl)phenoxy)methyl]-3-fluoro-5-(trifluoromethyl)pyridine]: the solubility at 24 h in data set [2] (setting [3]) was 79.2 µg/mL (≈ 147 µM); in data set [2] (setting [4]), 39.7 µg/mL (≈ 73.7 µM). Further, the fold induction at 10 µM in data set [1] turned out to be 2.22.

For `COc1cc(OCc2ncc(C(F)(F)F)cc2F)ccc1-c1[nH]c(-c2ccc(F)nc2)nc1CO` [Example 413, [5-(4-((3-fluoro-5-(trifluoromethyl)pyridin-2-yl)methoxy)-2-methoxyphenyl)-2-(6-fluoropyridin-3-yl)-1H-imidazol-4-yl]methanol], the solubility at 24 h in data set [2] (setting [3]) was 37 µg/mL (≈ 75.1 µM); in data set [2] (setting [4]) it was 2.9 µg/mL (≈ 5.89 µM). Also, in data set [1], the fold induction at 10 µM stood at 2.06.

Source of the values: patent publication US10570117B2, “Phenylimidazole compound” (Otsuka Pharmaceutical Factory, Inc., priority 2015, dated 2020).
